Assay results taken from article PMC8770641, “A transcytotic transport mechanism across the tympanic membrane” (Scientific Reports, 2022).

Key:
[1] = system: trans-TM transport of phage expressing peptide TMT-3; assay: Inhibitor studies: effect on trans-TM transport of phage expressing peptide TMT-3; format: in vivo, Sprague Dawley rats; conditions: 1 h, n = 6 ears; for Effect on trans-TM phage transport: NTHi-infected rats; for Reduction of trans-TM transport: ME contents titered
Method: Figure 5 illustrates the results of inhibitor studies.
The MEs of rats were infected with NTHi as above. 48 h later, the external ears of six anesthetized rats were injected with 50 µl of saline containing 10^10 phage expressing TM-3 peptide and up to four inhibitors. Inhibitors were applied at 5–10 times the published IC50 (see Table 1). For any combination of that affected trans-TM transport, Inhibitors were then tested individually to identify the active agent(s). Inhibitors included bafilomycin A (2 µM), brefeldin A (1 uM), carrageenan (200 mg/ml), chlorpromazine (300 µM), Dynasore (500 µM), Endosidin-2 (1 mM), Exo-1 (200 µM), Filipin (50 µg/ml), genistein (100 µM), N-ethylmaleimide (50 µM), nocodazole (300 µM), PitStop-2 (100 µM), Retro-2 (100 µM) and wortmannin (100 µM). […] Six external ears were injected with 10^9 wild-type (WT) phage without a peptide, as negative controls for phage contamination. After one hour, the external ears were extensive rinsed to remove all phage, the MEs were opened and the contents titered to quantify bacteriophage entry. Six replicates were averaged to get the mean and The standard error was calculated by dividing the standard deviation by the sample size's square root (n = 6).

tympanic membrane (TM) = conditions: purified phage applied to the TM of previously infected rats for one hour; ME contents titered; mean of n = 6; cited from earlier work
Source text: Table 1 Sequences and ME recovery of trans-TM 12-mer peptide phage identified by two screening methods (data from Kurabi et al.[19]). Each purified phage was applied to the TM of previously infected rats for one hour (n = 6), and the ME contents then tittered and the number of phage particles recovered were averaged (mean of n = 6). Phage recovery was grouped into transport categories, which were | column: Mean recovery from ME (PFUs)

[2] = inhibitor 100 µM with TMT-3 phage
[3] = inhibitor 100 µM with 10^10 TMT-3 phage in 50 µl saline in external ear of NTHi-infected rats (48 h)
[4] = inhibitor 300 µM with TMT-3 phage

CO/C1=C\C(C)=C\[C@@H](C)[C@@H](O)[C@@H](C)C/C(C)=C/C=C/[C@H](OC)[C@@H]([C@@H](C)[C@@H](O)[C@H](C)[C@@]2(O)C[C@@H](O)[C@H](C)[C@@H](C(C)C)O2)OC1=O [Bafilomycin]
Effect on trans-TM phage transport ([1]; inhibitor 2 µM with TMT-3 phage): no effect

O=C(N/N=C/c1ccc(O)c(O)c1)c1cc2ccccc2cc1O [Dynasore]
Effect on trans-TM phage transport ([1]; inhibitor 500 µM with TMT-3 phage): no effect

COc1cc(/C=N/NC(=O)c2cccc(F)c2)cc(I)c1O [Endosidin-2]
Reduction of trans-TM transport ([1]; inhibitor 1 mM with 10^10 TMT-3 phage in 50 µl saline in external ear of NTHi-infected rats (48 h)): ~ 80%
Effect on trans-TM phage transport ([1]; inhibitor 1 mM with TMT-3 phage): significantly reduced transport

COC(=O)c1ccccc1NC(=O)c1ccc(F)cc1 [Exo-1]
Reduction of trans-TM transport ([1]; inhibitor 200 µM with 10^10 TMT-3 phage in 50 µl saline in external ear of NTHi-infected rats (48 h)): 40%
Effect on trans-TM phage transport ([1]; inhibitor 200 µM with TMT-3 phage): significantly reduced transport

CCCCC[C@@H](O)[C@H]1C(=O)O[C@H](C)[C@@H](O)/C=C/C=C/C=C/C=C/C=C(\C)[C@@H](O)C[C@H](O)C[C@H](O)C[C@H](O)C[C@H](O)C[C@H](O)C[C@@H]1O [Filipin]
Effect on trans-TM phage transport ([1]; inhibitor 50 µg/ml with TMT-3 phage): no effect

CCN1C(=O)C=CC1=O [N-ethymaleimide]
Effect on trans-TM phage transport ([1]; inhibitor 50 µM with TMT-3 phage): no effect

O=C1NC(=NS(=O)(=O)c2cccc3ccccc23)S/C1=C\c1ccc(Br)cc1 [Pitstop-2]
Effect on trans-TM phage transport [1, 2]: Neither Pitstop-2, as illustrated in Fig. 5, nor chlorpromazine had any effect

Cc1ccc(C=Nc2ccccc2C(=O)Nc2ccccc2)s1 [Retro-2]
Reduction of trans-TM transport [1, 3]: approximately 90%
Effect on trans-TM phage transport [1, 2]: significantly reduced transport

CN(C)CCCN1c2ccccc2Sc2ccc(Cl)cc21 [chlorpromazine]
Effect on trans-TM phage transport [1, 4]: Neither Pitstop-2, as illustrated in Fig. 5, nor chlorpromazine had any effect

O=c1c(-c2ccc(O)cc2)coc2cc(O)cc(O)c12 [genistein]
Effect on trans-TM phage transport [1, 2]: no effect

COC(=O)Nc1nc2ccc(C(=O)c3cccs3)cc2[nH]1 [nocodazole]
Effect on trans-TM phage transport [1, 4]: no effect

COC[C@H]1OC(=O)c2coc3c2[C@@]1(C)C1=C(C3=O)[C@@H]2CCC(=O)[C@@]2(C)C[C@H]1OC(C)=O [wortmannin]
Reduction of trans-TM transport [1, 3]: approximately 90%
Effect on trans-TM phage transport [1, 2]: significantly reduced transport

ALWPPNLHAWVP [BPT-2, trans-TM 12-mer peptide expressed on M13 bacteriophage, fused through the C-terminus to the pIII protein]
Mean recovery from ME (PFUs) (tympanic membrane (TM)): 210 PFUs

DVGAGRWFSDNG [TMT-4, trans-TM 12-mer peptide expressed on M13 bacteriophage, fused through the C-terminus to the pIII protein]
Mean recovery from ME (PFUs) (tympanic membrane (TM)): 5430 PFUs

SADSTKTTHLTL [TMT-3, trans-TM 12-mer peptide expressed on M13 bacteriophage, fused through the C-terminus to the pIII protein]
Mean recovery from ME (PFUs) (tympanic membrane (TM)): 12,030 PFUs

SDDSRPIAQFAI [TMT-5, trans-TM 12-mer peptide expressed on M13 bacteriophage, fused through the C-terminus to the pIII protein]
Mean recovery from ME (PFUs) (tympanic membrane (TM)): 3017 PFUs

SPPGKFLESLRS [TMT-1, trans-TM 12-mer peptide expressed on M13 bacteriophage, fused through the C-terminus to the pIII protein]
Mean recovery from ME (PFUs) (tympanic membrane (TM)): 610 PFUs

TFNPPPPQMPST [BPT-4, trans-TM 12-mer peptide expressed on M13 bacteriophage, fused through the C-terminus to the pIII protein]
Mean recovery from ME (PFUs) (tympanic membrane (TM)): 9040 PFUs

THPSTKVPGTPA [BPT-3, trans-TM 12-mer peptide expressed on M13 bacteriophage, fused through the C-terminus to the pIII protein]
Mean recovery from ME (PFUs) (tympanic membrane (TM)): 13,050 PFUs

TLSPKMPGGGYW [TMT-2, trans-TM 12-mer peptide expressed on M13 bacteriophage, fused through the C-terminus to the pIII protein]
Mean recovery from ME (PFUs) (tympanic membrane (TM)): 3210 PFUs

TPMVERNYNAAD [BPT-1, trans-TM 12-mer peptide expressed on M13 bacteriophage, fused through the C-terminus to the pIII protein]
Mean recovery from ME (PFUs) (tympanic membrane (TM)): 95 PFUs

carrageenan
Effect on trans-TM phage transport ([1]; inhibitor 200 mg/ml with TMT-3 phage): no effect
